In patent US20180265804A1 (priority 2015, published 2018):

Assays:
Clostridium perfringens [1] = type: cell-based; details: strain of avian origin
Escherichia coli [2] = type: cell-based
Escherichia coli [3] = type: cell-based; remark: listed apart in the source
Salmonella Typhimurium [4] = type: cell-based
Solubility in water = type: physicochemical; details: for solubility: water, at 25° C.
Salmonella Typhimurium [5] = type: cell-based; remark: listed apart in the source
Clostridium perfringens [6] = type: cell-based; details: strain of avian origin, 10^6 cfu/ml, 37° C. for 24 hours, anaerobiosis
Salmonella Enteritidis [7] = type: cell-based
Salmonella Enteritidis [8] = type: cell-based; remark: listed apart in the source

Compound: Cc1ccc(C(C)C)cc1O [Carvacrol, reference compound]
- MBC (Clostridium perfringens [1]): ≤0.093%
- MBC (Escherichia coli [2]): ≤0.093%
- MIC (Escherichia coli [3]): ≤0.093%
- MIC (Salmonella Typhimurium [4]): 0.375%
- Solubility in water (Solubility in water; result in words): INSOLUBLE
- MBC (Salmonella Typhimurium [5]): 0.375%
- MIC (Clostridium perfringens [6]): ≤0.093%

Compound: CCCCCCCCCCCC(=O)Oc1cc(C(C)C)ccc1C [IB536, Carvacrol Laurate]
- MBC (Clostridium perfringens [1]): >10%
- MBC (Escherichia coli [2]): >10%
- MIC (Escherichia coli [3]): >10%
- MIC (Salmonella Typhimurium [4]): >10%
- MBC (Salmonella Typhimurium [5]): >10%
- MIC (Clostridium perfringens [6]): >10%

Compound: Cc1cc(S(=O)(=O)O)c(C(C)C)cc1O [IB540, Carvacrol Sulfonic Acid]
- MBC (Clostridium perfringens [1]): 0.75%
- MBC (Escherichia coli [2]): 0.75%
- MIC (Escherichia coli [3]): 0.75%
- MIC (Salmonella Enteritidis [7]): 0.312%
- MIC (Salmonella Typhimurium [4]): 0.75%
- MBC (Salmonella Typhimurium [5]): 0.75%
- MBC (Salmonella Enteritidis [8]): 0.312%
- MIC (Clostridium perfringens [6]): 0.375%

Compound: Cc1cc(S(=O)(=O)[O-])c(C(C)C)cc1O.[K+] [IB546, Carvacrol Sulfonate Potassium Salt]
- melting point: > 270 °C (dec.)
- MBC (Clostridium perfringens [1]): 0.75%
- MBC (Escherichia coli [2]): 5%
- MIC (Escherichia coli [3]): 5%
- MIC (Salmonella Enteritidis [7]): 1.25%
- MIC (Salmonella Typhimurium [4]): 1.25%
- solubility (Solubility in water): ~250 mg/mL
- MBC (Salmonella Typhimurium [5]): 1.25%
- MBC (Salmonella Enteritidis [8]): 1.25%
- MIC (Clostridium perfringens [6]): 0.375%

Compound: CCCCCCCCCCCC(=O)Oc1cc(C)ccc1C(C)C [IB570, Thymol Laurate]
- MBC (Clostridium perfringens [1]): >10%
- MBC (Escherichia coli [2]): >10%
- MIC (Escherichia coli [3]): >10%
- MIC (Salmonella Typhimurium [4]): >10%
- MBC (Salmonella Typhimurium [5]): >10%
- MIC (Clostridium perfringens [6]): >10%

Compound: Cc1cc(O)c(C(C)C)cc1S(=O)(=O)O [IB574, Thymol Sulfonic Acid]
- MBC (Clostridium perfringens [1]): 0.375%
- MBC (Escherichia coli [2]): 0.75%
- MIC (Escherichia coli [3]): 0.75%
- MIC (Salmonella Enteritidis [7]): 0.625%
- MIC (Salmonella Typhimurium [4]): 0.375%
- MBC (Salmonella Typhimurium [5]): 0.375%
- MBC (Salmonella Enteritidis [8]): 0.625%
- MIC (Clostridium perfringens [6]): 0.375%

Compound: Cc1cc(O)c(C(C)C)cc1S(=O)(=O)[O-].[K+] [IB575, Thymol Sulfonate Potassium Salt]
- MBC (Clostridium perfringens [1]): 2.5%
- MBC (Escherichia coli [2]): 2.5%
- MIC (Escherichia coli [3]): 2.5%
- MIC (Salmonella Typhimurium [4]): 5%
- solubility (Solubility in water): ~190 mg/mL
- MBC (Salmonella Typhimurium [5]): 5%
- MIC (Clostridium perfringens [6]): 1.25%

Compound: CCCCCCCCCCCC(=O)OC1CC(C)CCC1C(C)C (stereo not shown) [IB579, Menthol Laurate]
- MBC (Clostridium perfringens [1]): >10%
- MBC (Escherichia coli [2]): >10%
- MIC (Escherichia coli [3]): >10%
- MIC (Salmonella Typhimurium [4]): >10%
- MBC (Salmonella Typhimurium [5]): >10%
- MIC (Clostridium perfringens [6]): >10%

Compound: Cc1ccc(C(C)C)c(OC(=O)CCC(=O)Oc2cc(C)ccc2C(C)C)c1 [Succinate]
- MBC (Clostridium perfringens [1]): ≤0.093%
- MBC (Escherichia coli [2]): ≤0.093%
- MIC (Escherichia coli [3]): ≤0.093%
- MIC (Salmonella Typhimurium [4]): ≤0.093%
- MBC (Salmonella Typhimurium [5]): ≤0.093%
- MIC (Clostridium perfringens [6]): ≤0.093%

Compound: Cc1ccc(C(C)C)c(O)c1 [Thymol, reference compound]
- MBC (Clostridium perfringens [1]): ≤0.093%
- MBC (Escherichia coli [2]): ≤0.093%
- MIC (Escherichia coli [3]): ≤0.093%
- MIC (Salmonella Typhimurium [4]): ≤0.093%
- MBC (Salmonella Typhimurium [5]): ≤0.093%
- MIC (Clostridium perfringens [6]): ≤0.093%
